Experimental findings from PubChem BioAssay AID200 (DTP/NCI, 2004) are described below.

The test has as its system B6C3F1 mice, B16 melanoma ip, median survival T/C. The test can be described thus: NCI In Vivo Anticancer Drug Screen. Data for tumor model B16 Melanoma (intraperitoneal) in B6C3F1 mice. To be noted: endpoint: median survival time, higher = longer survival. An outline of the steps: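 Mice bearing transplanted tumor were dosed with compound or vehicle, and survival was recorded. Activity is expressed as the treated-group measurement (T) divided by the vehicle control measurement (C).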

Where [1] appears, read: dose: 50.0 mg/kg/injection, schedule: Q01DX009 (ip), vehicle: Klucel (hydroxypropylcellulose) (HPC).
Where [2] appears, read: dose: 100.0 mg/kg/injection, schedule: Q01DX009 (ip), vehicle: Klucel (hydroxypropylcellulose) (HPC).
The mark [3] stands for this setting: dose: 25.0 mg/kg/injection, schedule: Q01DX009 (ip), vehicle: water.
[4] abbreviates: dose: 12.5 mg/kg/injection, schedule: Q01DX009 (ip), vehicle: Klucel (hydroxypropylcellulose) (HPC).
The mark [5] stands for this setting: dose: 25.0 mg/kg/injection, schedule: Q01DX009 (ip), vehicle: Klucel (hydroxypropylcellulose) (HPC).
Where [6] appears, read: dose: 200.0 mg/kg/injection, schedule: Q01DX009 (ip), vehicle: Klucel (hydroxypropylcellulose) (HPC).
Setting [7] is: dose: 12.5 mg/kg/injection, schedule: Q01DX009 (ip), vehicle: saline with Tween-80.
Setting [8] is: dose: 25.0 mg/kg/injection, schedule: Q01DX009 (ip), vehicle: saline with Tween-80.
Setting [9] is: dose: 50.0 mg/kg/injection, schedule: Q01DX009 (ip), vehicle: saline with Tween-80.
Where [10] appears, read: dose: 200.0 mg/kg/injection, schedule: Q01DX009 (ip), vehicle: saline with Tween-80.

Several values for one entry are separate records, joined by “and”; a condition that tells them apart may be missing. Identical values can stand only once. Inconclusive results and toxic doses are left out.

In the case of `C=C1C(O)C2(O)OCC34C(CC5C(C)=CC(=O)C(O)C5(C)C23)OC(=O)C(OC(=O)C/C=C/CCCCCCCC)C14` (stereo not given), the T/C reads like this: (dose: 4.0 mg/kg/injection, schedule: Q01DX009 (ip), vehicle: saline + alcohol) 182 % of control; (dose: 5.76 mg/kg/injection, schedule: Q01DX009 (ip), vehicle: saline + Tween-80 + alcohol) 160 % of control; (dose: 8.0 mg/kg/injection, schedule: Q01DX009 (ip), vehicle: saline + alcohol) 182 % of control; (dose: 9.6 mg/kg/injection, schedule: Q01DX009 (ip), vehicle: saline + Tween-80 + alcohol) 197 % of control; (dose: 16.0 mg/kg/injection, schedule: Q01DX009 (ip), vehicle: saline + Tween-80 + alcohol) 176 % of control; (dose: 16.0 mg/kg/injection, schedule: Q01DX009 (ip), vehicle: saline + alcohol) 192 % of control.
`NC(CSC(c1ccccc1)(c1ccccc1)c1ccccc1)C(=O)O` (stereo not given): the T/C is 120 % of control (dose: 4.0 mg/kg/injection, schedule: Q01DX009 (ip), vehicle: Klucel (hydroxypropylcellulose) (HPC)) and 124 % of control (dose: 16.0 mg/kg/injection, schedule: Q01DX009 (ip), vehicle: Klucel (hydroxypropylcellulose) (HPC)).
For `C=C1C(O)C2OC3(CCC(/C=C/C(C)C4CC5(C)SC5C5(OC(CC(C)(O)C(=O)O)CCC5O)O4)O3)CCC2OC1C(O)CC(C)C1OC2(CCCCO2)CCC1C` (stereo not given), the T/C (dose: 1.25 micrograms/kg/injection, schedule: Q01DX009 (ip), vehicle: saline + alcohol) was 104 % of control; the T/C (dose: 2.5 micrograms/kg/injection, schedule: Q01DX009 (ip), vehicle: saline + alcohol) is 111 % of control; the T/C (dose: 5.0 micrograms/kg/injection, schedule: Q01DX009 (ip), vehicle: saline + alcohol) was 120 % of control; the T/C (dose: 20.0 micrograms/kg/injection, schedule: Q01DX009 (ip), vehicle: saline + alcohol) is 97 % of control.
For the compound `COC(=O)Nc1cn2ccc(C(Cl)=C(Cl)Cl)cc2n1`, the T/C runs as follows: under setting [1], 111 % of control; under setting [2], 116 % of control.
`COc1cc(NCc2ccc3nc(N)nc(N)c3c2C)cc(OC)c1OC`: the T/C by setting is: (dose: 2.5 mg/kg/injection, schedule: Q01DX009 (ip), vehicle: sodium bicarbonate) 110 % of control; (dose: 5.0 mg/kg/injection, schedule: Q01DX009 (ip), vehicle: sodium bicarbonate) 118 % of control; (dose: 6.25 mg/kg/injection, schedule: Q01DX009 (ip), vehicle: water) 108 % of control; (dose: 10.0 mg/kg/injection, schedule: Q01DX009 (ip), vehicle: sodium bicarbonate) 123 % of control; (dose: 12.5 mg/kg/injection, schedule: Q01DX009 (ip), vehicle: water) 114 % of control; under setting [3], 121 % of control.
As to `O=C(O)c1cc(Cc2ccc(O)c(C(=O)O)c2)ccc1O` (tested in a mixture with another compound), the T/C is, setting by setting: (dose: 6.25 mg/kg/injection, schedule: Q01DX009 (ip), vehicle: Klucel (hydroxypropylcellulose) (HPC)) 101 % of control; under setting [4], 105 % of control; under setting [5], 103 % of control; under setting [1], 94 % of control; under setting [2], 90 % of control; under setting [6], 93 % of control.
`C=CC1(C)CCC2C(=CCC3C2(C)CC(O)C(O)C3(C)COC2OC(CO)C(O)C(O)C2O)C1` (stereo not given): the T/C runs as follows: (dose: 1.5 mg/kg/injection, schedule: Q01DX009 (ip), vehicle: Klucel (hydroxypropylcellulose) (HPC)) 116 % of control; (dose: 3.0 mg/kg/injection, schedule: Q01DX009 (ip), vehicle: Klucel (hydroxypropylcellulose) (HPC)) 103 % of control; (dose: 6.0 mg/kg/injection, schedule: Q01DX009 (ip), vehicle: Klucel (hydroxypropylcellulose) (HPC)) 113 % of control; (dose: 12.0 mg/kg/injection, schedule: Q01DX009 (ip), vehicle: Klucel (hydroxypropylcellulose) (HPC)) 107 % of control; (dose: 24.0 mg/kg/injection, schedule: Q01DX009 (ip), vehicle: Klucel (hydroxypropylcellulose) (HPC)) 108 % of control.
As to `C=C(C)/C([O-])=N/[N+](C)(C)CC(O)CCCCCCCCCCCC` (stereo not given), the T/C reads like this: (dose: 25.0 mg/kg/injection, schedule: Q01DX001 (ip), vehicle: saline) 109 % of control; (dose: 50.0 mg/kg/injection, schedule: Q01DX001 (ip), vehicle: saline) 114 % of control and 116 % of control; (dose: 100.0 mg/kg/injection, schedule: Q01DX001 (ip), vehicle: saline) 114 % of control and 90 % of control; (dose: 200.0 mg/kg/injection, schedule: Q01DX001 (ip), vehicle: saline) 86 % of control.
On to `O=C(O[Si](Cc1ccccc1)(Cc1ccccc1)Cc1ccccc1)N(CCCl)CCCl`, for which the T/C is, setting by setting: (dose: 6.0 mg/kg/injection, schedule: Q01DX009 (ip), vehicle: saline with Tween-80) 103 % of control; under setting [7], 108 % of control; under setting [8], 101 % of control and 106 % of control; under setting [9], 113 % of control and 106 % of control.
For the compound `O=c1[nH]c(=O)n(C2CC(O)C(CO)O2)cc1Br` (stereo not given), the T/C was 92 % of control under setting [5]; 110 % of control under setting [1]; 110 % of control under setting [2]; 116 % of control under setting [6]; 114 % of control (dose: 400.0 mg/kg/injection, schedule: Q01DX009 (ip), vehicle: Klucel (hydroxypropylcellulose) (HPC)); 109 % of control (dose: 800.0 mg/kg/injection, schedule: Q01DX009 (ip), vehicle: Klucel (hydroxypropylcellulose) (HPC)).
`Cc1ccc2c(c1)n([O-])c1cc(Cl)ccc1[n+]2=O`: the T/C is, setting by setting: under setting [7], 105 % of control; under setting [8], 101 % of control; under setting [9], 122 % of control; under setting [10], 111 % of control.
Turning to `O=C(CCBr)NCCNC(=O)CCBr`, the T/C was 96 % of control (dose: 43.7 mg/kg/injection, schedule: Q01DX009 (ip), vehicle: saline with Tween-80); 100 % of control (dose: 87.5 mg/kg/injection, schedule: Q01DX009 (ip), vehicle: saline with Tween-80); 98 % of control (dose: 175.0 mg/kg/injection, schedule: Q01DX009 (ip), vehicle: saline with Tween-80).
For the compound `CC#CCOCC(O)CCl` (stereo not given), the T/C was 96 % of control (dose: 25.0 mg/kg/injection, schedule: Q01DX009 (ip), vehicle: suspension in saline); 105 % of control (dose: 50.0 mg/kg/injection, schedule: Q01DX009 (ip), vehicle: suspension in saline); 106 % of control (dose: 100.0 mg/kg/injection, schedule: Q01DX009 (ip), vehicle: suspension in saline); 102 % of control (dose: 200.0 mg/kg/injection, schedule: Q01DX009 (ip), vehicle: suspension in saline).
`OCC1OC(n2cnc3c2NC=NC[C@H]3O)CC1O` (stereo not given in full): the T/C reads like this: (dose: 0.13 mg/kg/injection, schedule: Q01DX009 (ip), vehicle: saline) 84 % of control; (dose: 0.25 mg/kg/injection, schedule: Q01DX009 (ip), vehicle: saline) 78 % of control; (dose: 0.5 mg/kg/injection, schedule: Q01DX009 (ip), vehicle: saline) 96 % of control.
For the compound `CC(O)C(NC(=O)OC(C)(C)C)C(=O)ON1C(=O)CCC1=O` (stereo not given), the T/C is, setting by setting: under setting [9], 98 % of control; (dose: 100.0 mg/kg/injection, schedule: Q01DX009 (ip), vehicle: saline with Tween-80) 96 % of control; under setting [10], 91 % of control.
Consider `O=C1C2=C(C(=O)c3cnccc31)C1C=CC2CC1` (stereo not given), for which the T/C was 115 % of control (dose: 12.5 mg/kg/injection, schedule: Q01DX009 (ip), vehicle: DMSO); 98 % of control (dose: 25.0 mg/kg/injection, schedule: Q01DX009 (ip), vehicle: DMSO); 111 % of control (dose: 50.0 mg/kg/injection, schedule: Q01DX009 (ip), vehicle: DMSO); 98 % of control (dose: 100.0 mg/kg/injection, schedule: Q01DX009 (ip), vehicle: DMSO).
As to `COc1ccc2[nH]c3ccc4cc[n+](CCN5CCC(C6CCN(CC[n+]7ccc8ccc9[nH]c%10ccc(OC)cc%10c9c8c7)CC6)CC5)cc4c3c2c1`, the T/C was 155 % of control (dose: 6.0 mg/kg/injection, schedule: Q01DX009 (ip), vehicle: water); 158 % of control (dose: 12.0 mg/kg/injection, schedule: Q01DX009 (ip), vehicle: water); 155 % of control under setting [4]; 203 % of control under setting [5]; 177 % of control under setting [3]; 192 % of control under setting [1]. Also, the T/C reads like this: (dose: 50.0 mg/kg/injection, schedule: Q01DX009 (ip), vehicle: water) 168 % of control; under setting [2], 167 % of control; (dose: 100.0 mg/kg/injection, schedule: Q01DX009 (ip), vehicle: water) 197 % of control.
